The text below walks through data of patent US4769386A, “Imidazolylthioalkenoic acids and -alkenols and leukotriene antagonistic composition containing them” (Smithkline Beckman Corporation, priority 1986, dated 1988).

Structures can show the parent of a compound that is named as a salt.

The target in the first experiment is T1, leukotriene induced contraction of guinea pig tracheal tissues (LTD4) (Cavia porcellus, UniProt Q2NNR5).
T1 construct: from tissue; host or cells: guinea pig (adult male albino Hartley strain) tracheal spiral strips
T1 sequence (Q2NNR5 1-340): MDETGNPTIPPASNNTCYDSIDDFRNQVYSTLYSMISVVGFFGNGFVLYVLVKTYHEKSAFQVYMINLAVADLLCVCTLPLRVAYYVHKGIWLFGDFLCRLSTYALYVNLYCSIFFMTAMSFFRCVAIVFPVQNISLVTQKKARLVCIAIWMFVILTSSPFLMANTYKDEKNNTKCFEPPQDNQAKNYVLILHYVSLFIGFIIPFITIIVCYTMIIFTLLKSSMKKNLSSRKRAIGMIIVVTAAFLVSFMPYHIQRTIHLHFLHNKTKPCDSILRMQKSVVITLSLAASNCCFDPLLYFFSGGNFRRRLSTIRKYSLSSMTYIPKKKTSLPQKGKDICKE
Briefly: leukotriene (LTD4) induced contraction of guinea pig tracheal spiral strips in vitro, leukotriene antagonist activity. The experiment is classed as cell-based, guinea pig (adult male albino Hartley strain). Conditions: antagonism of LTD4 contraction, guinea pig trachea; EC30 based (30% of carbachol contraction); meclofenamic acid 1 μM; test compound 30 min pretreatment; KB = concentration of test compound/(X-1); 30 min. Here is the method:
The leukotriene antagonist activity of the compounds of this invention is measured by the ability of the compounds to inhibit the leukotriene induced contraction of guinea pig tracheal tissues in vitro. The following methodology was employed:
In vitro: Guinea pig (adult male albino Hartley strain) tracheal spiral strips of approximate dimensions 2 to 3 mm cross-sectional width and 3.5 cm length were bathed in modified Krebs buffer in jacketed 10 ml tissue bath and continuously aerated with 95% O2 /5% CO2. The tissues were connected via silk suture to force displacement transducers for recording isometric tension. The tissues were equilibrated for 1 hr., pretreated for 15 minutes with meclofenamic acid (1 μM) to remove intrinsic prostaglandin responses, and then pretreated for an additional 30 minutes with either the test compound or vehicle control. A cumulative concentration-response curve for LTD4 on triplicate tissues was generated by successive increases in the bath concentration of the LTD4. In order to minimize intertissue variability, the contractions elicited by LTD4 were standardized as a percentage of the maximum response obtained to a reference agonist, carbachol […].
Calculations: The averages of the triplicate LTD4 concentration-response curves both in the presence and absence of the test compound were plotted on log graph paper. The concentration of LTD4 needed to elicit 30% of the contraction elicited by carbachol was measured and defined as the EC30. The -log KB value for the test compound was determined by the following equations:
2. KB = concentration of test compound/(X-1)
Consider `CCCCCCCCCCCC/C=C\C(Sc1nc(C)c(C(=O)O)n1C)C(O)CCC(=O)O` (single isomer, unassigned) [Formula (III), R1 ^(a) CH3, R2 --CO2 H, R3 CH3 (second isomer line), 4-Hydroxy-5-(1,4-dimethyl-5-carboxy-2-imidazolylthio)-6(Z)-nonadecenoic acid], for which the “In Vitro -Log KB” value worked out at 6.8.
The same measure, in the same setting: next, `CCCCCCCCCCCC/C=C\C(Sc1nc(C)c(C(=O)O)n1C)C(O)CCC(=O)O` (single isomer, unassigned) [Formula (III), R1 ^(a) CH3, R2 --CO2 H, R3 CH3 (first isomer line), 4-Hydroxy-5-(1,4-dimethyl-5-carboxy-2-imidazolylthio)-6(Z)-nonadecenoic acid]: 6.9.

The experiment is the same for the next values; noted with them: antagonism of LTD4 contraction, guinea pig trachea; EC30 based (30% of carbachol contraction); meclofenamic acid 1 μM; test compound 30 min pretreatment; KB = concentration of test compound/(X-1); read-out: In Vitro -Log KB (converted).
As to `CCCCCCCCCCCC/C=C\[C@H](Sc1nccn1C)[C@H](O)CCC(=O)O` (relative stereo) [Formula (III), R1 CH3, R2 H, R3 H, 4-Hydroxy-5-(1-methyl-2-imidazolylthio)-6(Z)-nonadecenoic acid], the Kb (as a rule, the equilibrium dissociation constant of an antagonist, usually derived from a functional assay) is 1260 nM.
Still for that read-out and setting: as for `CCCCCCCCCCCC/C=C\C(Sc1cn(C)cn1)C(O)CCC(=O)O` (stereo not drawn) [Formula (V), R4 ^(b) CH3, R5 H, R6 H, 4-Hydroxy-5-(1-methyl-4-imidazolylthio)-6(Z)-nonadecenoic acid, sodium salt], the figure is 2000 nM; as for `CCCCCCCCCCCC/C=C\[C@H](Sc1ncc(C(N)=O)n1C)[C@H](O)CCC(=O)O` (relative stereo) [Formula (III), R1 CH3, R2 --CONH2, R3 H, 4-Hydroxy-5-(1-methyl-5-carboxamido-2-imidazolylthio)-6(Z)-nonadecenoic acid], 3980 nM.
Still for that read-out and setting: next, `CCCCCCCCCCCC/C=C\[C@H](Sc1nc(C(C)C)c(C(=O)O)n1C)[C@H](O)CCC(=O)O` (relative stereo) [4-Hydroxy-5-(5-carboxy-4-isopropyl-1-methyl-2-imidazolylthio)-6(Z)-nonadecenoic Acid]: 1260 nM.
As for `CCCCCCCCCCCC/C=C\[C@H](Sc1nccn1CC)[C@H](O)CCC(=O)O` (relative stereo) [Formula (III), R1 CH3 CH2, R2 H, R3 H, 4-Hydroxy-5-(1-ethyl-2-imidazolylthio)-6(Z)-nonadecenoic acid, sodium salt], the Kb was 5010 nM.
Same read-out and setting: as for `CCCCCCCCCCCC/C=C\[C@H](Sc1nc(C)c(CCC(=O)O)n1C)[C@H](O)CCC(=O)O` (relative stereo) [4-Hydroxy-5-[5-(2-carboxyethyl)-1,4-dimethyl-2-imidazolylthio]-6(Z)-nonadecenoic Acid], the figure is 1260 nM.
In the case of `CCCCCCCCCCCC/C=C\[C@H](Sc1nc(CCC)c(C(=O)O)n1C)[C@H](O)CCC(=O)O` (relative stereo) [4-Hydroxy-5-(5-carboxy-1-methyl-4-propyl-2-imidazolylthio)-6(Z)-nonadecenoic Acid], the Kb was 316 nM.
Still for that read-out and setting: as for `CCCCCCCCCCCC/C=C\C(CCCC(=O)O)Sc1ncc(C(=O)O)n1C` (stereo not drawn) [5-(1-methyl-5-carboxy-2-imidazolylthio)-6(Z)-nonadecenoic acid], the figure is 316 nM; as for `CCCCCCCCCCCC/C=C\[C@H](Sc1nc(CC(=O)O)cn1C)[C@H](O)CCC(=O)O` (relative stereo) [4-Hydroxy-5-(1-methyl-4-carboxymethyl-2-imidazolylthio)-6(Z)-nonadecenoic acid], 794 nM.
The same measure, in the same setting: next, `CCCCCCCCCCCC/C=C\[C@H](Sc1ncc(C(=O)O)n1C)[C@H](O)CCC(=O)O` (relative stereo) [Formula (III), R1 CH3, R2 --CO2 H, R3 H, 4-Hydroxy-5-(1-methyl-5-carboxy-2-imidazolylthio)-6(Z)-nonadecenoic acid]: 158 nM.
`CCCCCCCCCCCC/C=C\[C@H](Sc1nccn1C)[C@H](O)CCCC(=O)O` (relative stereo) [Formula (IV), R1 CH3, R2 H, R3 H, 5-Hydroxy-6-(1-methyl-2-imidazolylthio)-7(Z)-eicosenoic acid]: the Kb is 1000 nM.
The same measure, in the same setting: next, `CCCCCCCCCCCCC#CC(Sc1nc(C)c(C(=O)O)n1C)C(O)CCC(=O)O` (stereo not drawn) [4-Hydroxy-5-(1,4-dimethyl-5-carboxy-2-imidazolylthio)-6-nonadecynoic acid]: 1580 nM; `CCCCCCCCCCCC/C=C\C(Sc1ncn(C)c1C(=O)O)C(O)CCC(=O)O` (stereo not drawn) [Formula (V), R4 CH3, R5 H, R6 --CO2 H, 4-Hydroxy-5-(1-methyl-5-carboxy-4-imidazolylthio)-6(Z)-nonadecenoic acid]: 200 nM.
The same measure, in the same setting: next, `CCCCCCCCCCCC/C=C\[C@H](Sc1nc(C)c(C(=O)O)n1C)[C@H](O)CCC(=O)O` (relative stereo) [4-Hydroxy-5-(1,4-dimethyl-5-carboxy-2-imidazolylthio)-6(Z)-nonadecenoic acid]: 126 nM.
Consider `CCCCCCCCCCCC/C=C\[C@H](Sc1nc(C)c(CC(N)=O)n1C)[C@H](O)CCC(=O)O` (relative stereo) [4-Hydroxy-5-(5-Aminocarbonylmethyl-1,4-dimethyl-2-imidazolylthio)-6(Z)-nonadecenoic Acid], for which the Kb was 631 nM.
For the compound `CCCCCCCCCCCC/C=C\[C@H](Sc1nc(C(=O)O)c[nH]1)[C@H](O)CCC(=O)O` (relative stereo) [Formula (III), R1 H, R2 --CO2 H, R3 H, 4-Hydroxy-5-[4(5)-carboxy-2-imidazolylthio]-6(Z)-nonadecenoate acid], the Kb was 2000 nM.
As to `CCCCCCCCCCCC/C=C\[C@H](Sc1nc(C)c(C)n1C)[C@H](O)CCC(=O)O` (relative stereo) [Formula (III), R1 CH3, R2 CH3, R3 CH3, 4-Hydroxy-5-(1,4,5-trimethyl-2-imidazolylthio)-6(Z)-nonadecenoic acid], the Kb was 2510 nM.
For the compound `C=CCn1ccnc1S[C@@H](/C=C\CCCCCCCCCCCC)[C@H](O)CCC(=O)O` (relative stereo) [Formula (III), R1 CH2 =CHCH2, R2 H, R3 H, 4-Hydroxy-5-(1-allyl-2-imidazolylthio)-6(Z)-nonadecenoic acid], the Kb was 5010 nM.
Same read-out and setting: as for `CCCCCCCCCCCC/C=C\[C@H](Sc1nc(CC)c(C(=O)O)n1C)[C@H](O)CCC(=O)O` (relative stereo) [4-Hydroxy-5-(5-carboxy-4-ethyl-1-methyl-2-imidazolylthio)-6-(Z)-nonadecenoic Acid], the figure is 200 nM; as for `CCCCCCCCCCCC/C=C\[C@H](Sc1nc(C)c(CC(=O)O)n1C)[C@H](O)CCC(=O)O` (relative stereo) [4-Hydroxy-5-(5-carboxymethyl-1,4-dimethyl-2-imidazolylthio)-6(Z)-nonadecenoic Acid], 398 nM.

Staying with this experiment, now noted: method as for the table (LTD4, guinea pig trachea); read-out: -log KB value (converted).
Consider `Cc1nc(SC(/C=C\CCCCCCCCc2ccccc2)C(O)CCC(=O)O)n(C)c1C(=O)O` (stereo not drawn) [Example 26, 4-Hydroxy-5-(5-carboxy-1,4-dimethyl-2-imidazolylthio)-15-phenyl-6(Z)-pentadecenoic Acid], for which the Kb was 251 nM.
The same measure, in the same setting: as for `CC(C)=CCCCCCCCCC/C=C\C(Sc1nc(C)c(C(=O)O)n1C)C(O)CCC(=O)O` (stereo not drawn) [Example 25, 4-Hydroxy-5-(5-carboxy-1,4-dimethyl-2-imidazolylthio)-18-methyl-6(Z),17-nonadecadienoic Acid], the figure is 31.6 nM.
